Results as given in ChEMBL document CHEMBL1158755, “Bromophenols coupled with derivatives of amino acids and nucleosides from the red alga Rhodomela confervoides” (J Nat Prod, 2005).

Columns and labels:
Escherichia coli = assay: Antibacterial activity against Escherichia coli; format: functional
HCT-8 = assay: Cytotoxicity against human HCT8 cells by MTT assay; format: functional, cell-based
A549 = assay: Cytotoxicity against human A549 cells by MTT assay; format: functional, cell-based
Candida albicans = assay: Antifungal activity against Candida albicans after 24 hrs; format: functional
Bel-7402 = assay: Cytotoxicity against human Bel7402 cells by MTT assay; format: functional, cell-based
BGC-823 = assay: Cytotoxicity against human BGC823 cells by MTT assay; format: functional, cell-based
MCF7 = assay: Cytotoxicity against human MCF7 cells by MTT assay; format: functional, cell-based
Staphylococcus aureus = assay: Antibacterial activity against Staphylococcus aureus; format: functional

| SMILES | MIC50 (Escherichia coli) | IC50 (HCT-8) | IC50 (A549) | MIC50 (Candida albicans) | IC50 (Bel-7402) | IC50 (BGC-823) | IC50 (MCF7) | MIC50 (Staphylococcus aureus) |
| --- | --- | --- | --- | --- | --- | --- | --- | --- |
| COC(=O)C1CCC(=O)N1Cc1cc(O)c(O)c(Br)c1Cc1cc(O)c(O)c(Br)c1Br (configuration not stated) | > 100 µg/mL | > 10 µg/mL | > 10 µg/mL | > 100 µg/mL | > 10 µg/mL | > 10 µg/mL | > 10 µg/mL | > 100 µg/mL |
| COC(=O)C1CCC(=O)N1Cc1cc(O)c(O)c(Br)c1Br (configuration not stated) | > 100 µg/mL | > 10 µg/mL | > 10 µg/mL | > 100 µg/mL | > 10 µg/mL | > 10 µg/mL | > 10 µg/mL | > 100 µg/mL |
| OC[C@H]1O[C@@H](n2cnc3cnc(NCc4cc(O)c(O)c(Br)c4Br)nc32)[C@H](O)[C@@H]1O | > 100 µg/mL | > 10 µg/mL | > 10 µg/mL | > 100 µg/mL | > 10 µg/mL | > 10 µg/mL | > 10 µg/mL | > 100 µg/mL |
| O=C(O)C1CCC(=O)N1Cc1cc(O)c(O)c(Br)c1Br (configuration not stated) | > 100 µg/mL | > 10 µg/mL | > 10 µg/mL | > 100 µg/mL | > 10 µg/mL | > 10 µg/mL | > 10 µg/mL | > 100 µg/mL |
